Like-named read-outs stand apart in the source and are kept apart here.
How the values were obtained:
[1] = molecular target: T1, MMP-2 (Homo sapiens, UniProt P08253); test: MMP-2 inhibition assay (fluorogenic peptide substrate); type: biochemical; conditions: for IC50: n.d: not detected; for remaining activity (%): MMP-2
T1 construct: purchased Sino Biological 10082-HNAH
T1 sequence (P08253 110-660): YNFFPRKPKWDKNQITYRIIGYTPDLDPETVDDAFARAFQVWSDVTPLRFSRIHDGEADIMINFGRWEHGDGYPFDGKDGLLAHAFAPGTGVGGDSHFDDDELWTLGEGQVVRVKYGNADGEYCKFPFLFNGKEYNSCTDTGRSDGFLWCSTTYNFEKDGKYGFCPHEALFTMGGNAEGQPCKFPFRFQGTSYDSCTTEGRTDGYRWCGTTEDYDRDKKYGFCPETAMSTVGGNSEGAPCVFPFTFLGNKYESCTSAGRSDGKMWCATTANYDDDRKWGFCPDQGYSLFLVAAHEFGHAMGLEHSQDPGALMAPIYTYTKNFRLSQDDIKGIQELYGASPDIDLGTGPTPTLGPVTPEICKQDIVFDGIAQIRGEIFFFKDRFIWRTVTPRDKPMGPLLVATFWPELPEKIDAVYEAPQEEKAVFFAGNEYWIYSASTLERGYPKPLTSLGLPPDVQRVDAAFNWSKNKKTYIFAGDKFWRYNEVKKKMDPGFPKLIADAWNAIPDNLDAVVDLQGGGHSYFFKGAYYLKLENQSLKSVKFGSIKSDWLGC
How it was run: (§1)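 Hydrolysis of DNP-Pro-Leu-Gly-Met-Trp-Ser-Arg (25 μM final) was tracked kinetically at em 360 nm over 30 min. Enzymes, APMA-activated and at 10 nM (MMP-9) or 6.5 nM (MMP-2) final, sat 30 min at RT with inhibitor in pH 7.5 Tris buffer with CaCl2 and Brij 35 first. Logistic fitting of Vmax against concentration gave IC50, in triplicate.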

[2] = molecular target: T2, MMP-9 (Homo sapiens, UniProt P14780); test: MMP-9 inhibition assay (fluorogenic peptide substrate); type: biochemical; design: remaining enzyme activity (% of control): scale not given here; conditions: for IC50: n.d: not detected; for remaining enzyme activity (% of control): MMP-9
T2 construct: purchased Sino Biological 10327-HNAH
How it was run: as §1

[3] = Figure 5d, fragment combination joined by linker, read-out: MMP2 IC50
[4] = Figure 5d, fragment combination joined by linker, read-out: MMP9 IC50
[5] = mean ± SE, Fig. 5d unit inferred, µM, read-out: IC50
[6] = mean ± SE, Fig. 5e prints no unit, µM, read-out: IC50

T2 sequence (P14780 107-707 limits assumed): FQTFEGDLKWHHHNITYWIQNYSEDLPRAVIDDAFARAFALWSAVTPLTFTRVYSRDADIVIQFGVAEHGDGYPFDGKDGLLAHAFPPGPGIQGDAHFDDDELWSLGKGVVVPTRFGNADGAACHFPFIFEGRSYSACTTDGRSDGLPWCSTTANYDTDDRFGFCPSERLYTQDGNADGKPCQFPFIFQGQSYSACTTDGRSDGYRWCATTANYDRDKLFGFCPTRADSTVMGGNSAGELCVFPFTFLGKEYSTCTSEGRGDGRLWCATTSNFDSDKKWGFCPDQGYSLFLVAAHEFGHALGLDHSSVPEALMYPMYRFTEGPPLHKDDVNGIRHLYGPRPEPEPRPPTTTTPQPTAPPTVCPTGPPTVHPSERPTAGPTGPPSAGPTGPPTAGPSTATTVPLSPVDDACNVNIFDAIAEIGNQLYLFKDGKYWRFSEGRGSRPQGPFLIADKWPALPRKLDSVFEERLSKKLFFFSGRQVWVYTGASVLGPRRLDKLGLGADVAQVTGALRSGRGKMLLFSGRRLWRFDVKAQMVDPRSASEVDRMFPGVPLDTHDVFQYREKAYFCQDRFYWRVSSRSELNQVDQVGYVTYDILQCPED

Row | SMILES | IC50 [1, 3] | IC50 [2, 4] | remaining activity (%) ([1]; concentration 0.0156 µM) | remaining activity (%) ([1]; concentration 0.08 µM) | remaining activity (%) ([1]; concentration 0.39 µM) | remaining activity (%) ([1]; concentration 1.95 µM) | remaining activity (%) ([1]; concentration 9.75 µM) | remaining activity (%) ([1]; concentration 48.76 µM) | remaining activity (%) ([1]; concentration 243.80 µM) | remaining activity (%) ([1]; concentration 1219.00 µM) | IC50 [1, 5] | remaining enzyme activity (% of control) ([2]; concentration 0.08 µM) | remaining enzyme activity (% of control) ([2]; concentration 0.39 µM) | remaining enzyme activity (% of control) ([2]; concentration 1.95 µM) | remaining enzyme activity (% of control) ([2]; concentration 9.75 µM) | remaining enzyme activity (% of control) ([2]; concentration 48.76 µM) | remaining enzyme activity (% of control) ([2]; concentration 243.80 µM) | remaining enzyme activity (% of control) ([2]; concentration 1219.00 µM) | IC50 [2, 6]
1 | O=C(Cn1cnc2c(oc3ccccc32)c1=O)NCCCCCCCCNC(=O)c1cncc(O)c1 [182_828 4] | 188 µM | 233 µM | – | – | – | – | – | – | – | – | – | – | – | – | – | – | – | – | –
2 | O=C(Cn1cnc2c(oc3ccccc32)c1=O)NCCOCCOCCNC(=O)c1cncc(O)c1 [182_828 10] | 43 µM | 99.6 µM | – | – | – | – | – | – | – | – | – | – | – | – | – | – | – | – | –
3 | O=C(/C=C/CCCCNC(=O)c1cncc(O)c1)CC(=O)NCCNC(=O)Cn1cnc2c(oc3ccccc32)c1=O [182_828 12] | 50.3 µM | 45.9 µM | – | – | – | – | – | – | – | – | – | – | – | – | – | – | – | – | –
4 | O=C(CSCCNC(=O)c1cncc(O)c1)NCCNC(=O)Cn1cnc2c(oc3ccccc32)c1=O [182_828 24] | 33.3 µM | 35.3 µM | – | – | – | – | – | – | – | – | – | – | – | – | – | – | – | – | –
5 | Cc1cc(=O)[nH]c(-n2nc(C)c(CCC(=O)NCc3c[nH]nn3)c2C)n1 [693+787 Linker 1] | – | – | 96.66 | 98.78 | 101.13 | 92.82 | 86.30 | 75.55 | 47.37 | 8.68 | 204 ± 37.3 µM | 91.27 | 99.91 | 99.61 | 100.27 | 85.00 | 58.59 | 5.52 | 312 ± 67.1 µM
6 | Cc1cc(=O)[nH]c(-n2nc(C)c(CCC(=O)NCCCCCCCCNC(=O)CCC(=O)NCc3c[nH]nn3)c2C)n1 [693+787 Linker 4] | – | – | 90.99 | 98.42 | 91.65 | 90.86 | 84.93 | 72.64 | 40.04 | 8.77 | 169 ± 32.6 µM | 100.71 | 80.60 | 86.03 | 91.12 | 86.75 | 51.81 | 0.00 | 250 ± 24.6 µM
7 | Cc1cc(=O)[nH]c(-n2nc(C)c(CCC(=O)NCCOCCOCCNC(=O)CCC(=O)NCc3c[nH]nn3)c2C)n1 [693+787 Linker 10] | – | – | 92.29 | 75.74 | 87.35 | 94.03 | 78.88 | 75.04 | 39.80 | 7.43 | 171 ± 12.6 µM | 96.44 | 100.55 | 96.19 | 93.95 | 88.14 | 47.49 | 12.51 | 230 ± 51.3 µM
8 | Cc1cc(=O)[nH]c(-n2nc(C)c(CCC(=O)NCCSCC(=O)NCc3c[nH]nn3)c2C)n1 [693+787 Linker 24] | – | – | 88.74 | 98.28 | 98.89 | 81.72 | 92.63 | 69.73 | 36.49 | 2.36 | 149 ± 25.1 µM | 94.26 | 97.78 | 91.22 | 96.92 | 92.11 | 57.21 | 9.75 | 270 ± 31.4 µM

From article PMC10023787, “Trio-pharmacophore DNA-encoded chemical library for simultaneous selection of fragments and linkers” (Nature Communications, 2023)
